Values after ≈ are worked out from the molar mass of the structure shown. “Also recorded” adds a separate entry of the source. Where two headings read alike, the source gives them in different places.
Legend:
wild-type InhA [1] = molecular target: T1, wild-type InhA (Mycobacterium tuberculosis, UniProt P9WGR1); test: InhA enzyme inhibition, steady state kinetics; format: biochemical
M. tuberculosis [2] = test: Antibacterial growth assay; format: cell-based, Mycobacterium tuberculosis
wild-type InhA [3] = molecular target: T1, wild-type InhA; test: InhA progress curve assays; format: biochemical; conditions: for Slow-onset: Yes/No
M. tuberculosis Erdman [4] = test: Rapid M. tuberculosis animal model of efficacy; format: in vivo, Mycobacterium tuberculosis; conditions: for reduction of bacterial counts in the spleen: GKO C57BL/6 mice, IP, 10 days of treatment, compared to untreated controls; for efficacy in rapid murine model of TB infection: mice, IP delivery, bacterial CFUs in spleen
wild-type InhA [5] = molecular target: T1, wild-type InhA; conditions: cited from earlier work
M. tuberculosis Erdman [6] = conditions: mice, bacterial load in lung or spleen; cited from earlier work
M. tuberculosis [7] = conditions: cited from earlier work
[8] = Table 1, slow-onset (time-dependent) inhibition of InhA
[9] = Table 1, lowest concentration inhibiting visible growth

T1 sequence (P9WGR1 whole entry, looked up): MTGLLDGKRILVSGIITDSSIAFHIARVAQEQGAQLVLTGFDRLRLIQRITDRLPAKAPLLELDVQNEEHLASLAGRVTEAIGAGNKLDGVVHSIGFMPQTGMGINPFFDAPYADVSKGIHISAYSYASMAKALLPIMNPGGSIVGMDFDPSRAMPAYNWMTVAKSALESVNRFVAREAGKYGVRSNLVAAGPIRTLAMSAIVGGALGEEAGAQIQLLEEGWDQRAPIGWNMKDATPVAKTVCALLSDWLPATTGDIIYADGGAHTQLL

Structure (SMILES) | IC50 (wild-type InhA [1]) [nM] | MIC (M. tuberculosis [2]; Mycobacterium tuberculosis) [µg/mL] | Slow-onset (wild-type InhA [3]; [8]) | other results
CCCCCCc1ccc(Oc2cnccc2N)c(O)c1 [PT112, 2-((4-Aminopyridin-3-yl)oxy)-5-hexylphenol] | 69000 ± 700 | 50 (≈ 175 µM) |  | fold increase in IC50 value, amino group compared to fluorine group (wild-type InhA [1]; PT013 vs. PT113, PT112 vs. PT161): 1700 fold; fold difference in IC50 value between PT134 and PT112 (wild-type InhA [1]; PT134 (2'- and 4'-N) vs 4'-N analogue PT112): 300 fold
CCCCCCc1ccc(Oc2ccccc2F)c(O)c1 [PT113, 2-(2-Fluorophenoxy)-5-hexylphenol] | 12.1 ± 4.8 | 1.56 (≈ 5.41 µM) | Yes | Ki (wild-type InhA [3]): 0.09 ± 0.02 nM; residence time (wild-type InhA [3]): 9 ± 3 min
CCCCCCc1ccc(Oc2ccccc2N)c(O)c1 [PT013] |  |  |  | MIC (M. tuberculosis [2]; [9]): 3.13 µg/mL (≈ 11 µM)
CCCCCCc1ccc(Oc2ccccc2Cl)c(O)c1 [PT091, 2-(2-Chlorophenoxy)-5-hexylphenol] |  | 1.56 (≈ 5.12 µM) | slow onset and Yes | residence time (wild-type InhA [3]): 21 ± 3 min; reduction of bacterial counts in the spleen (M. tuberculosis Erdman [4]): 0.69 ± 0.22 log10; efficacy in rapid murine model of TB infection (M. tuberculosis Erdman [4]): demonstrated efficacy
CCCCCCc1ccc(Oc2ccccc2Br)c(O)c1 [PT092, 2-(2-Bromophenoxy)-5-hexylphenol] |  | 3.12 (≈ 8.95 µM) | Yes | residence time (wild-type InhA [3]): 30 ± 3 min
CCCCCCc1ccc(Oc2ccccc2I)c(O)c1 [PT096, 5-Hexyl-2-(2-iodophenoxy)phenol] | 44.6 ± 7.5 | 25 (≈ 63.1 µM) | No | Ki (wild-type InhA [3]): 3.72 ± 5.13 nM
CCCCCCc1ccc(Oc2cncnc2N)c(O)c1 [PT134, 2-((4-Aminopyrimidin-5-yl)oxy)-5-hexylphenol] | 239 ± 46.8 | 3.12 (≈ 10.9 µM) |  | 
CCCCCCc1ccc(Oc2cccnc2F)c(O)c1 [PT161, 2-((2-Fluoropyridin-3-yl)oxy)-5-hexylphenol] | 40 ± 20 | 0.312 (≈ 1.08 µM) |  | Slow-onset (wild-type InhA [3]; Table 3): slow-onset inhibition and Yes
CCCCCCc1ccc(Oc2c(F)cccc2Cl)c(O)c1 [PT133, 2-(2-Chloro-6-fluorophenoxy)-5-hexylphenol] | 79.7 ± 24.4 | 25 (≈ 77.4 µM) |  | 
CCCCCCc1ccc(Oc2c(C)cccc2N)c(O)c1 [PT110, 2-(2-Amino-6-methylphenoxy)-5-hexylphenol] |  | > 100 |  | MIC (M. tuberculosis [2]; Table 2): total loss
CCCCCCc1ccc(Oc2cnccc2C(=O)O)c(O)c1 [PT116, 3-(4-Hexyl-2-hydroxyphenoxy)isonicotinic acid] | > 12000 | 25 (≈ 79.3 µM) |  | 
CCCCCCc1ccc(Oc2c(F)cccc2C#N)c(O)c1 [PT111, 3-Fluoro-2-(4-hexyl-2-hydroxyphenoxy) benzonitrile] | 100 ± 9 | 25 (≈ 79.8 µM) |  | 
CCCCCCc1ccc(Oc2cnccc2C#N)c(O)c1 [PT115, 3-(4-Hexyl-2-hydroxyphenoxy)isonicotinonitrile] | 891 ± 106 | 12.5 (≈ 42.2 µM) |  | residence time (wild-type InhA [3]): > 20 min; Slow-onset (wild-type InhA [3]; Table 3): Yes
CCCCCCc1ccc(Oc2ccccc2O)c(O)c1 [PT114, 5-Hexyl-2-(2-hydroxyphenoxy)phenol] | 48 ± 3 | 12.5 (≈ 43.6 µM) | No | Ki (wild-type InhA [3]): 15.9 ± 3.7 nM
CCCCCCc1ccc(Oc2c(Cl)cccc2Cl)c(O)c1 [PT109, 2-(2,6-Dichlorophenoxy)-5-hexylphenol] | 86 ± 6 | 25 (≈ 73.7 µM) |  | 
CCCCCCc1ccc(Oc2ccccc2C)c(O)c1 [PT070] |  |  | slow onset and Yes | Ki (wild-type InhA [3]; Table 1): 0.044 ± 0.005 nM; residence time (wild-type InhA [3]; Table 1): 24 ± 2 min; reduction of bacterial counts in the spleen (M. tuberculosis Erdman [4]): 0.57 ± 0.26 log10; efficacy in rapid murine model of TB infection (M. tuberculosis Erdman [4]): demonstrated efficacy; IC50 (wild-type InhA [1]; Table 1, enzyme concentration 100 nM): 50.7 ± 4 nM; residence time on InhA (wild-type InhA [5]): 24 min; MIC (M. tuberculosis [2]; [9]): 3.125 µg/mL (≈ 11 µM); MIC (M. tuberculosis [2]; Table 2): 3.125 µg/mL (≈ 11 µM)
CCCCCCc1ccc(Oc2c(C)cccc2C)c(O)c1 [PT108, 2-(2,6-Dimethylphenoxy)-5-hexylphenol] | 1570 ± 200 | 100 (≈ 335 µM) |  | 
CCCCCCc1ccc(Oc2ccccc2C(F)(F)F)c(O)c1 [PT095, 5-Hexyl-2-(2-(trifluoromethyl)phenoxy)phenol] | 29.7 ± 1.2 | 50 (≈ 148 µM) | No | 
CCCCCCc1ccc(Oc2ccccc2[N+](=O)[O-])c(O)c1 [PT010] |  |  |  | MIC (M. tuberculosis [2]; [9]): 12.50 µg/mL (≈ 39.6 µM)
CCCCCCc1ccc(Oc2ccc([N+](=O)[O-])cc2C)c(O)c1 [PT107, 5-Hexyl-2-(2-methyl-4-nitrophenoxy)phenol] | 50 ± 5 | 6.25 (≈ 19 µM) |  | Ki (wild-type InhA [3]): 0.13 ± 0.03 nM
CCCCCCc1ccc(Oc2ccccc2C#N)c(O)c1 [PT119, 2-(4-Hexyl-2-hydroxyphenoxy)benzonitrile] |  | 2.5 (≈ 8.46 µM) | Yes | residence time (wild-type InhA [3]): 80 ± 12 min; fold reduction of binding affinity compared to PT070 (wild-type InhA [3]; ratio of Ki): ~ 50 fold
CCCCCCc1ccc(Oc2ccccc2)c(O)c1 [PT004] |  |  |  | efficacy in rapid murine model of TB infection (M. tuberculosis Erdman [6]): failed to observe a significant reduction in bacterial load; also recorded: did not show efficacy; also recorded: did not significantly reduce the bacterial load; also recorded: does not demonstrate efficacy; also recorded: lack of efficacy; bacterial load in rapid macrophage model of TB infection (M. tuberculosis [7]): had efficacy in a macrophage TB assay; also recorded: reduced the bacterial load; MIC (M. tuberculosis [2]; [9]): 2.1 µg/mL (≈ 7.77 µM); MIC (M. tuberculosis [2]; Table 2): 2.1 ± 0.9 µg/mL (≈ 7.77 µM)
CCCCCCc1ccc(Oc2ccccn2)c(O)c1 [PT077] |  |  |  | MIC (M. tuberculosis [2]; Table 3): 3.13 µg/mL (≈ 11.5 µM)
CCCCCCc1ccc(Oc2cccnc2C#N)c(O)c1 [PT164, 3-(4-Hexyl-2-hydroxyphenoxy)picolinonitrile] | 308 ± 4.2 | < 0.39 |  | Slow-onset (wild-type InhA [3]; Table 3): slow-onset inhibition and Yes
